# Laboratory results as given in patent publication US20110124588A1, “SYNERGISTIC ACTIVE INGREDIENT COMBINATIONS” (Bayer Cropscience AG, priority 2008, published 2011).
# Like-named read-outs stand apart in the source and are kept apart here.
# Assays:
# [1] = test system: Tetranychus urticae; assay: Tetranychus urticae test (OP-resistant/spray treatment); assay type: in vivo, greenhouse red spider mite (Tetranychus urticae)
# Excerpt: (§1) The expected activity of a given combination of two active compounds can be calculated as follows, according to S. R. Colby, Weeds 15 (1967), 20-22:
# (§2) X is the kill rate, expressed as a percentage of the untreated control, when employing active compound A at an application rate of m g/ha or in a concentration of m ppm, Y is the kill rate, expressed as a percentage of the untreated control, when employing active compound B at an application rate of n g/ha or in a concentration of n ppm and E is the kill rate, expressed as a percentage of the untreated control, when employing active compounds A and B at application rates of m and n g/ha or in a concentration of m and n ppm, then
# (§3) If the actual kill rate exceeds the calculated value, the kill of the combination is superadditive, i.e. a synergistic effect is present. In this case, the actually observed kill rate must exceed the value calculated using the above formula for the expected kill rate (E).
# (§4) solvents: 78 parts by weight of acetone • • 1.5 parts by weight of dimethylformamide emulsifier: 0.5 part by weight of alkylaryl polyglycol ether
# (§5) To produce a suitable preparation of active compound, 1 part by weight of active compound is mixed with the stated amounts of solvents and emulsifier, and the concentrate is diluted with emulsifier-containing water to the desired concentration.
# Discs of bean leaves (Phaseolus vulgaris) which are infested by all stages of the greenhouse red spider mite (Tetranychus urticae) are sprayed with an active compound preparation of the desired concentration.
# After the desired period of time, the activity in % is determined 100% means that all spider mites have been killed; 0% means that none of the spider mites have been killed.
# [2] = test system: Myzus persicae; assay: Myzus persicae test (spray treatment of infested cabbage leaves); assay type: in vivo, green peach aphid (Myzus persicae); conditions: for pest or weed control at 0.16 g/ha / pest or weed control at 0.8 g/ha / pest or weed control at 0.032 g/ha / pest or weed control at 4 g/ha: Myzus persicae
# Description: as §3, §4
# After the desired period of time, the kill in % is determined 100% means that all aphids have been killed; 0% means that none of the aphids have been killed. The kill rates determined are entered into Colby's formula.
# [3] = test system: Phaedon cochleariae; assay: Phaedon cochleariae larvae test (sprayed cabbage leaves); assay type: in vivo, mustard beetle (Phaedon cochleariae) larvae; conditions: Phaedon cochleariae, single active compound
# Description: as §3
# Solvents: 78 parts by weight of acetone • • 1.5 parts by weight of dimethylformamide Emulsifier: 0.5 part by weight of alkylaryl polyglycol ether
# After the desired period of time, the kill in % is determined 100% means that all beetle larvae have been killed; 0% means that none of the beetle larvae have been killed. The kill rates determined are entered into Colby's formula.
# [4] = test system: Spodoptera frugiperda; assay: Spodoptera frugiperda larvae test (sprayed cabbage leaves); assay type: in vivo, army worm (Spodoptera frugiperda) larvae
# Excerpt: as §1, §2, §3, §4, §5
# Cabbage leaves (Brassica oleracea) are treated by spraying with the active compound preparation of the desired concentration and are populated with larvae of the army worm (Spodoptera frugiperda) while the leaves are still moist.
# After the desired period of time, the kill in % is determined 100% means that all caterpillars have been killed; 0% means that none of the caterpillars have been killed. The kill rates determined are entered into Colby's formula.
# [5] = Tetranychus urticae, 144 h, read-out: Kill in % after 6 d
# [6] = 144 h, read-out: Kill in % after 6 d
# [7] = 48 h, 2 d, read-out: Kill in % after 2 d
# [8] = 144 h, 6 d, read-out: Kill in % after 6 d
# [9] = Spodoptera frugiperda, 144 h, read-out: Kill in % after 6 d
# [10] = 24 h, read-out: Kill in % after 1 d
# [11] = Spodoptera frugiperda, 48 h, read-out: Kill in % after 2 d
# [12] = Tetranychus urticae, 48 h, read-out: Kill in % after 2 d
molecule,measurement,setting,value
CC1=NNC(=O)N(/N=C/c2cccnc2)C1 [pymetrozine],pest or weed control at 100 g/ha,[1]; [5],0%
same,pest or weed control at 0.16 g/ha,[2]; [6],0%
same,pest or weed control at 0.8 g/ha,[2]; [6],60%
CC1(C)[C@H](C(=O)O[C@H](C#N)c2cccc(Oc3ccccc3)c2)[C@@H]1C=C(Br)Br [deltamethrin],pest or weed control at 0.8 g/ha,[3]; [7],67%
same,pest or weed control at 0.16 g/ha,[3]; [8],50%
same,pest or weed control at 0.16 g/ha,[4]; [9],17%
same,pest or weed control at 4 g/ha,[1]; [5],0%
same,pest or weed control at 0.032 g/ha,[2]; [10],0%
Cc1c(COC(=O)C2C(/C=C(\Cl)C(F)(F)F)C2(C)C)cccc1-c1ccccc1 (stereo not drawn) [bifenthrin],pest or weed control at 0.8 g/ha,[3]; [8],50%
same,pest or weed control at 0.8 g/ha,[4]; [9],0%
same,pest or weed control at 4 g/ha,[1]; [5],40%
same,pest or weed control at 0.032 g/ha,[2]; [6],0%
O=C(NC(=O)c1c(F)cccc1F)Nc1ccc(OC(F)(F)C(F)OC(F)(F)F)c(Cl)c1 (stereo not drawn) [novaluron],pest or weed control at 0.8 g/ha,[4]; [11],33%
same,pest or weed control at 20 g/ha,[1]; [12],0%
same,pest or weed control at 4 g/ha,[2]; [6],0%
"Cc1nn(C)c(/C(OC(=O)C(C)(C)C)=C(\C#N)c2ccc(C(C)(C)C)cc2)c1C [cyenopyrafen, (1E)-2-cyano-2-[4-(1,1-dimethylethyl)phenyl]-1-(1,3,4-trimethyl-1H-pyrazol-5-yl)ethenyl 2,2-dimethylpropanoate]",pest or weed control at 100 g/ha,[3]; [8],0%
same,pest or weed control at 0.8 g/ha,[1]; [12],70%
emamectin benzoate,Kill in % after 2 d,"[4]; single active compound, 0.8 g/ha, 2 d",83%
same,Kill in % after 6 d,"[1]; single active compound, 0.032 g/ha, after 6 d",0%
same,Kill in % after 6 d,"[2]; single active compound, 0.0064 g/ha, 6 d",0%
CC(c1ccc(C(F)(F)F)nc1)S(C)(=O)=NC#N (stereo not drawn) [compound (I-8)],pest or weed control at 0.16 g/ha,[3]; [7],0%
same,pest or weed control at 0.8 g/ha,[3]; [7],0%
same,pest or weed control at 4 g/ha,[3]; [7],0%
same,pest or weed control at 20 g/ha,[3]; [7],0%
same,pest or weed control at 100 g/ha,[3]; [7],67%
same,pest or weed control at 0.16 g/ha,[3]; [8],0%
same,pest or weed control at 0.8 g/ha,[3]; [8],0%
same,pest or weed control at 4 g/ha,[3]; [8],0%
same,pest or weed control at 20 g/ha,[3]; [8],17%
same,pest or weed control at 100 g/ha,[3]; [8],67%
same,pest or weed control at 0.16 g/ha,[4]; [11],0%
same,pest or weed control at 0.8 g/ha,[4]; [11],0%
same,pest or weed control at 20 g/ha,[4]; [11],0%
same,pest or weed control at 0.16 g/ha,[4]; [9],0%
same,pest or weed control at 0.8 g/ha,[4]; [9],0%
same,pest or weed control at 4 g/ha,[4]; [9],0%
same,pest or weed control at 20 g/ha,[4]; [9],0%
same,pest or weed control at 0.8 g/ha,[1]; [12],0%
same,pest or weed control at 4 g/ha,[1]; [12],0%
same,pest or weed control at 0.16 g/ha,[1]; [5],0%
same,pest or weed control at 0.8 g/ha,[1]; [5],0%
same,pest or weed control at 4 g/ha,[1]; [5],0%
same,pest or weed control at 20 g/ha,[1]; [5],0%
same,pest or weed control at 100 g/ha,[1]; [5],0%
same,pest or weed control at 0.16 g/ha,[2]; [10],0%
same,pest or weed control at 0.16 g/ha,[2]; [6],60%
Cc1ccc(/N=C/N(C)/C=N/c2ccc(C)cc2C)c(C)c1 [amitraz],pest or weed control at 20 g/ha,[1]; [5],80%
same,pest or weed control at 0.8 g/ha,[2]; [10],0%
same,pest or weed control at 4 g/ha,[2]; [6],0%
"COCCOC(=O)C(C#N)(C(=O)c1ccccc1C(F)(F)F)c1ccc(C(C)(C)C)cc1 (stereo not drawn) [cyflumetofen, 2-methoxyethyl alpha-cyano-alpha-[4-(1,1-dimethylethyl)phenyl]-beta-oxo-2-(trifluoromethyl)benzenepropanoate]",pest or weed control at 100 g/ha,[3]; [8],0%
same,pest or weed control at 0.8 g/ha,[1]; [12],50%
